Source: patent publication US6399583B1, “Hybrid anthracyclines from genetically engineered streptomyces galilaeus strains, process for production and uses thereof” (Galilaeus Oy, priority 1998, dated 2002)
Where two headings read alike, the source gives them in different places.

Key:
[1] = system: MES-SA/D×5 uterine sarcoma cells (doxorubicin-resistant, MDR); assay: Cytotoxicity assay, luminescence ATP detection, MES-SA/D×5; assay type: cell-based, human; settings: MES-SA/D×5 cells, three days incubation, ATP content, highest concentration 10^-5 M, read-out: ED50 (nM) MES-SA/D × 5
Protocol: (§1) The cytotoxicities of the new anthracyclines were tested in vitro with two cell lines: human uterine sarcomas MES-SA (CRL-1976; American Type Culture Collection (ATCC), Rockville, Md., USA) and MES-SA/D×5 (CRL-1977; ATCC, Rockville, Md., USA). MES-SA/D×5 has been developed by growing MES-SA cells in increasing concentrations of doxorubicin (Harker and Sikic, 1985).
(§2) Monolayer cultures were grown in McCoy's 5A medium with L-glutamine (Gibco BRL) supplemented with 10% FBS (Foetal Bovine Serum, Gibco BRL). No antibiotics were added. As the resistance is stable for at least 20 passages, the MES-SA/D×5 cells were grown without anthracycline selection (Harker and Sikic, 1985). Cells were maintained at 37° C. with 5% CO2 and subcultured every 3-5 days.
(§3) The cytotoxicity tests were performed in 96-well microtiter plates (sterile white plates with clear bottom, Corning Costar Corporation, Cambridge, Mass., USA). The anthracyclines were pipetted into the plates in 10 μl of ethanol, pure ethanol was used for control plates. Daunorubicin and aclarubicin were used as positive controls. When the ethanol had evaporated, the cells were seeded into the plates in 100 μl of appropriate medium. The number of cells seeded per well was 2500 with MES-SA, 3000 with MES-SA/D×5, 3000 with LL/2, 2000 with B16-F0 and B16-F1, 2000 with KLN-205 and 8000 with MLTC-1. The ATP content of the cells was measured after incubating the cells for three days at 37° C. with 5% CO2.
(§4) The growth medium was removed by turning the plates over, and 200 μl of ATP extraction reagent, Somalyze, were added to the wells. The plates were then incubated for 30 minutes at room temperature. The ATP measurement was performed with Luminoskan luminometer (Labsystems Oy, Helsinki, Finland) at 22° C. 20 μl of ATP monitoring reagent containing luciferin and luciferase was dispensed, and an integral measurement of 10 s with 2 s lag time was performed for each well. All reagents used were supplied by Bio-Orbit Oy, Turku, Finland.
(§5) The direct luminometer output (in relative light units, RLUS) was used to calculate the cytotoxic effect. This light signal is directly proportional to the amount of […] in a wide range (determined with Bio-Orbit ATP standard, data not shown). On the other hand, the amount of ATP is directly proportional to the amount of living cells (Kangas et al., 1984). The results are expressed as percentages of the control value of untreated cells. An IC50 value (the drug concentration resulting to an ATP signal of 50% of the untreated control signal) was graphically estimated from the % of control vs. drug concentration plot.

[2] = system: Lewis lung carcinoma (LL/2); assay: Cytotoxicity assay, ATP detection, LL/2; assay type: cell-based, mouse; settings: LL/2 cells in vitro, read-out: ED50 LL/2
Protocol: as §3, §4, §5
(§6) H075-4a was also tested with several mouse cell lines in vitro (all were purchased from ATCC, Rockville, Md., USA): Lewis lung carcinoma (LL/2) (CRL-1642), B16-F0 melanoma (CRL-6322), B16-F1 melanoma (CRL-6323), KLN-205 lung squamous cell carcinoma (CRL-1453) and MLTC-1 leydig cell tumor (CRL-2065) using daunomycin, aclarubicin and H075-1a (MA 144U1) as references.
(§7) All cells grew as monolayers and were cultured at 37° C. with 5% CO2 according to ATCC standard instructions for each cell line: LL/2 in Dulbecco's modified Eagle's medium with 4.5 g/l glucose and 10% FCS, B16-F0 and B16-F1 in MEM (Eagle) in Earle's BSS with non-essential amino acids and 10% FCS, KLN-205 in MEM (Eagle) in Earle's BSS with non-essential amino acids and 10% FCS, MLTC-1 in RPMI 1640 with 25 mM HEPES and 10% FBS. All media were purchased from Gibco BRL, the serum was Gibco BRL Foetal Bovine Serum. […]

B16-F0 melanoma = assay: Cytotoxicity assay, ATP detection, B16-F0; assay type: cell-based, mouse; settings: B16-F0 cells in vitro, read-out: ED50 B16-F0
Protocol: as §3, §4, §5, §6, §7

B16-F1 melanoma = assay: Cytotoxicity assay, ATP detection, B16-F1; assay type: cell-based, mouse; settings: B16-F1 cells in vitro, read-out: ED50 B16-F1
Protocol: as §3, §4, §5, §6, §7

SK-N-MC = assay: Cytotoxicity assay, ATP detection, SK-N-MC; assay type: cell-based; settings: SK-N-MC cells in vitro; read-out: ED50 SK-N-MC
MLTC-1 leydig cell tumor = assay: Cytotoxicity assay, ATP detection, MLTC-1; assay type: cell-based, mouse; settings: MLTC-1 cells in vitro, read-out: ED50 MLTC-1
Protocol: as §3, §4, §5, §6, §7

[3] = system: MES-SA human uterine sarcoma cells; assay: Cytotoxicity assay, luminescence ATP detection, MES-SA; assay type: cell-based; settings: three days incubation, ATP content, highest concentration 10^-5 M, read-out: ED50 (nM) MES-SA
Protocol: as §1, §2, §3, §4, §5

P388 leukemia = assay: Cytotoxic activity in vivo: P388 leukemia model; parameters: species or system mice; settings: 10^6 P388 cells i.p. day 0
Text: P388 leukemia was maintained by serial intraperitoneal (i.p.) transplantations in DBA/2JBom female mice purchased from M & B A/S, Ry, Denmark. The animals were maintained at the facilities of Central Animal Laboratory, University of Turku. The management of the animal unit is based on and followed the guidelines: “European Convention for the protection of Vertebrate Animals used for Experimental and other Scientific Purposes, European Treaty Series No. 123 (EU No. 609/86), Official Journal of European Communities No. L 358, Strasbourg Nov. 24, 1986”, and “The Statute No. 1360/90 of the Finnish Law, Helsinki Dec. 21, 1990: Asetus kokeellisiin ja muihin tieteellisiin tarkoituksiin käytettävien selkärankaisten eläinten suojelemiseksi tehdyn eurooppalaisen yleissopimuksen voimaansaattamisesta. Suomen s{umlaut over (aa)}doskokoelma.”
The in vivo tests were started by injecting 10^6 P388 cells suspended in Dulbecco's phosphate buffered saline i.p. in mice on day 0. Groups of 3 mice were used. The drugs were administered i.p. on day 1 on the basis of individual body weight. The control group received vehicle (10% ethanol in Dulbecco's phosphate buffered saline).

[4] = system: KLN-205 lung squamous cell carcinoma; assay: Cytotoxicity assay, ATP detection, KLN-205; assay type: cell-based, mouse; settings: KLN-205 cells in vitro, read-out: ED50 KLN-205
Protocol: as §3, §4, §5, §6, §7

Row | Structure (SMILES) | EC50 [1] [nM] | EC50 [2] [nM] | EC50 (B16-F0 melanoma) [nM] | EC50 (B16-F1 melanoma) [nM] | EC50 (SK-N-MC) [nM] | EC50 (MLTC-1 leydig cell tumor) [nM] | EC50 [3] [nM] | Median survival days (range) (P388 leukemia; 1 mg/kg i.p. on day 1) | Median survival days (range) (P388 leukemia; 2 mg/kg i.p. on day 1) | Median survival days (range) (P388 leukemia; 4 mg/kg i.p. on day 1) | Median survival days (range) (P388 leukemia; 6 mg/kg i.p. on day 1) | EC50 [4] [nM] | EC50 ([1]; Homo sapiens, 72 h) [nM] | EC50 ([2]; Mus musculus) [nM] | EC50 (B16-F0 melanoma; Mus musculus, B16F0) [nM] | EC50 (B16-F1 melanoma; Mus musculus) [nM] | EC50 (MLTC-1 leydig cell tumor; Mus musculus, Leydig) [nM] | EC50 ([3]; Homo sapiens, 72 h) [nM] | EC50 ([4]; Mus musculus) [nM]
1 | CCC1(O)CC(OC2CC(N(C)C)C(OC3CC(O)C(OC4CC(O)C(O)C(C)O4)C(C)O3)C(C)O2)c2c(O)c3c(c(O)c2C1C(=O)OC)C(=O)c1cccc(O)c1C3=O (stereo not drawn) [Compound H075-4a] | 50 | 8 | 2 | 2 | 9 | 60 | 1 | 14 (13-15) days | 14 (13-16) days | 15 (13-15) days | 15 (15-16) days | 5 | – | – | – | – | – | – | –
2 | COc1cccc2c1C(=O)c1c(O)c3c(c(O)c1C2=O)C[C@@](O)(C(C)=O)C[C@@H]3O[C@H]1C[C@H](N)[C@H](O)[C@H](C)O1 [Daunorubicin] | – | – | – | – | 3 | – | – | – | – | 14 (14-16) days | – | – | 220 | 15 | 20 | 8 | 900 | 8 | 90
